Measurements reported in patent US7745479B2, “1,5-substituted indol-2-yl amide derivatives” (Hoffmann-La Roche Inc., priority 2005, dated 2010).

Target: T1, histamine 3 receptor (H3R) (Homo sapiens, UniProt Q9Y5N1)
T1 construct: expressed in transfected cells; host or cells: CHO cells (HR3-CHO cell line), membrane preparation
Assay: Competition binding assay with 3H-(R)α-methylhistamine on membranes of the human HR3-CHO cell line
Conditions: competition with 3H(R)α-Methylhistamine (1 nM), Ki calculated from IC50 by Cheng-Prusoff equation
Experimental: Binding Assay with ^3H-(R)α-methylhistamine
Saturation binding experiments were performed using HR3-CHO membranes prepared as described in Takahashi, K, Tokita, S., Kotani, H. (2003) J. Pharmacol. Exp. Therapeutics 307, 213-218.
An appropriate amount of membrane (60 to 80 μg protein/well) was incubated with increasing concentrations of ^3H(R)α-Methylhistamine di-hydrochloride (0.10 to 10 nM). Non specific binding was determined using a 200 fold excess of cold (R)α-Methylhistamine dihydrobromide (500 nM final concentration). The incubation was carried out at room temperature (in deep-well plates shaking for three hours). The final volume in each well was 250 μl. […] After harvesting, the plates were dried at 55° C. for 60 min, then scintillation fluid (Microscint 40, 40 microl in each well) was added and the amount of radioactivity on the filter was determined with a Packard top-counter after shaking the plates for two hours at 200 rpm at room temperature. • Binding Buffer: 50 mM Tris-HCl pH 7.4 and 5 mM MgCl2x6H2O pH 7.4. […]
An appropriate amount of protein, e.g. approximately 500 cpm binding of RAMH at Kd, were incubated for 1 hour at room temperature in 250 μl final volume in 96-well plates in presence of ^3H(R)α-Methylhistamine (1 nM final concentration=Kd). Non-specific binding was determined using a 200 fold excess of cold (R)α-Methylhistamine dihydrobromide. […]

T1 sequence (Q9Y5N1 whole entry): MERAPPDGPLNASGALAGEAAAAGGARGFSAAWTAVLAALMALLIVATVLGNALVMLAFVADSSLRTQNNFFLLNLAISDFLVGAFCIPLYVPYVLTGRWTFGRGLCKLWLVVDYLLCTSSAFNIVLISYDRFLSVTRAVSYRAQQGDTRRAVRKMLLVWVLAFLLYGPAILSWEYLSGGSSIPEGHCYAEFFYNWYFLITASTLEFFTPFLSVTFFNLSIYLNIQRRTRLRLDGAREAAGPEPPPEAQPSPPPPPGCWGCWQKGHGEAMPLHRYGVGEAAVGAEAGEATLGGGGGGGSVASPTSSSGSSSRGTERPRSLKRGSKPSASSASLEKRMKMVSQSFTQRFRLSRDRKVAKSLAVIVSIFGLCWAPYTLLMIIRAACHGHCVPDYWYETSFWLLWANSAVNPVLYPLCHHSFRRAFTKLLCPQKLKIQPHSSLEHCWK

Ki: 2 nM
Structure (SMILES): CC(C)N1CCC(Oc2ccc3c(c2)cc(C(=O)N2CCC(F)(F)CC2)n3-c2ccnc(Cl)c2)CC1 [Example 9, [1-(2-Chloro-pyridin-4-yl)-5-(1-isopropyl-piperidin-4-yloxy)-1H-indol-2-yl]-(4,4-difluoro-piperidin-1-yl)-methanone]
